Reference: patent US4352802A, “Bicyclo[3.3.1]nonyl-benzamide” (Beecham Group Limited, priority 1980, dated 1982)

What was measured:
Assay type in all cases: in vivo
Dopamine Receptor [1] = assay: Inhibition of apomorphine induced climbing in the mouse (dopamine receptor blocking activity in the central nervous system); conditions: p.o., apomorphine 1 mg/kg s.c., not necessarily the lowest active dose
Procedure: II. Dopamine Receptor Blocking Activity in the Central Nervous System
Compounds were tested for inhibition of apomorphine induced climbing in the mouse. The test is based on that described by Protais, P., Constantin, J. and Schwartz J. C. (1976), Psychopharmacology, 50, 1-6.
Apomorphine 1 mg/kg s.c. induces mice to climb the wall of a wire cage (inverted food hopper-11×7.5×18 cm high). Mice acclimatised in their home cages in groups of 5 are placed under the hoppers immediately after the injection of apomorphine 1 mg/kg s.c. At 10,20 and 30 minutes after injection climbing behaviour is scored. The mice are observed for 30 seconds and scored according to the position they spend the majority of time in, score 0--four paws on floor of cage; score 1--[…]; score 2--all paws on wall of cage. The scores at all 3 times and for each mouse are summed and mice drug treated orally compared to mice receiving apomorphine only. A saline only treated group is also included and any score, generally <5% of maximum taken into account.

Dopamine Receptor [2] = assay: as above; conditions: s.c., apomorphine 1 mg/kg s.c., not necessarily the lowest active dose
[3] = tested on: vomiting response to apomorphine HCl; assay: Anti-emetic activity in the dog (apomorphine-induced vomiting); conditions: Canis lupus familiaris, sc, 30 minutes prior to apomorphine HCl 0.1 mg/kg s.c.
Procedure: I. Anti-emetic activity in the dog
Compounds were administered subcutaneously 30 minutes prior to administration of a standard dose of apomorphine HCl (0.1 mg/kg subcutaneously) and the vomiting response compared to that obtained when the same animals were dosed with apomorphine HCl and vehicle only.

[4] = tested on: inhibitory effect of 6,7-ADTN on gastric motility; assay: Gastric motility testing in the rat (reversal of 6,7-ADTN inhibition); conditions: conscious chronic gastric fistula rat, 1 mg/kg s.c., 10 minutes after 6,7-ADTN 1 mg/kg s.c.
Procedure: III. Gastric Motility Testing in the rat
The compounds were tested for ability to reverse the inhibitory effect of 6,7-ADTN on gastric motility as recorded by an open tipped catheter in the conscious chronic gastric fistula rat. Administration of 1 mg/kg s.c. of 6,7-ADTN reduced basal gastric motor activity and this was reversed by the administration of the compound administered 10 minutes after the 6,7-ADTN. […] For subcutaneous testing the compound was dissolved in water by the addition of tartaric acid (1/2 mole per mole of compound).

SMILES | Active Dose (inhibition of apomorphine induced climbing) (Dopamine Receptor [1]) [mg/kg] | further results
COc1cccc(C(=O)N[C@@H]2C[C@H]3COC[C@@H](C2)N3Cc2ccccc2)c1OC [Compound 6, 2,3-Dimethoxyj-[N-(9-benzyl-9-aza-3-oxabicyclo(3,3,1)nonan-7β-yl)]benzamide] | 2 | –
COc1cc(N)c(Cl)cc1C(=O)N[C@@H]1C[C@H]2COC[C@@H](C1)N2CC1CCCCC1 [Compound 26] | 10 | –
COc1cc(N)c(Cl)cc1C(=O)N[C@@H]1C[C@H]2COC[C@@H](C1)N2Cc1ccc(C)cc1 [Compound 22, 2-Methoxy-5-chloro-4-amino-[N-(9-(4-methylbenzyl)-9-aza-3-oxabicyclo(3,3,1)nonan-7β-yl)]benzamide] | 10 | –
COc1cc(N)c(Cl)cc1C(=O)N[C@@H]1C[C@H]2COC[C@@H](C1)N2Cc1ccc(Cl)c(Cl)c1 [Compound 20, 2-Methoxy-5-chloro-4-amino-[N-(9-(3,4-dichlorobenzyl)-9-aza-3-oxabicyclo(3,3,1)nonan-7β-yl)]benzamide] | 10 | –
COc1ccc(S(C)(=O)=O)cc1C(=O)N[C@@H]1C[C@H]2CSC[C@@H](C1)N2Cc1ccccc1 [Compound 5, 2-Methoxy-5-methylsulphonyl-N-[9-benzyl-9-aza-3-thiabicyclo (3,3,1)nonan-7β-yl]benzamide] | – | Active Dose (inhibition of apomorphine induced climbing) (Dopamine Receptor [2]): 50 mg/kg; ED50 [3]: 0.1 mg/kg; Reversal of the action of 6,7-ADTN on gastric motility [4]: reversed the action of 6,7-ADTN
COc1cc(NC(C)=O)c(Cl)cc1C(=O)N[C@@H]1C[C@H]2COC[C@@H](C1)N2Cc1ccccc1 [Compound 1, 2-Methoxy-5-chloro-4-acetamido-N-[9-benzyl-9-aza-3-oxabicyclo(3,3,1)nonan-7β-yl]-benzamide] | 2 | –
COc1ccc(CN2[C@@H]3COC[C@H]2C[C@H](NC(=O)c2cc(Cl)c(N)cc2OC)C3)cc1 [Compound 19, 2-Methoxy-5-chloro-4-amino-[N-(9-(4-methoxybenzyl)9-aza-3-oxabicyclo(3,3,1)nonan-7β-yl)]benzamide] | 10 | –
COc1cc(N)c(Cl)cc1C(=O)N[C@@H]1C[C@H]2COC[C@@H](C1)N2Cc1cccc(C(F)(F)F)c1 [Compound 21, 2-Methoxy-5-chloro-4-amino-[N-(9-(3-trifluoromethylbenzyl)-9-aza-3-oxabicyclo(3,3,1)nonan-7β-yl)]benzamide] | 50 | –
COc1cc(N)c(Cl)cc1C(=O)N[C@@H]1C[C@H]2COC[C@@H](C1)N2CCC(C)C [Compound 25, 2-Methoxy-5-chloro-4-amino-[N-(9-(3-methylbutyl)-9-aza-3-oxabicyclo(3,3,1)nonan-7β-yl)]benzamide] | 10 | –
CCCCCCN1[C@@H]2COC[C@H]1C[C@H](NC(=O)c1cc(Cl)c(N)cc1OC)C2 [Compound 23, 2-Methoxy-5-chloro-4-amino[N-(9-(n-hexyl)-9-aza-3-oxabicyclo(3,3,1)nonan-7β-yl)]benzamide] | 10 | –
COc1cc(N)c(Cl)cc1C(=O)N[C@@H]1C[C@H]2COC[C@@H](C1)N2Cc1ccccc1 [Compound 2, 2-Methoxy-5-chloro-4-amino-N-[9-benzyl-9-aza-3-oxabicyclo(3,3,1)nonan-7β-yl]-benzamide] | 1 | ED50 [3]: 0.005 mg/kg; Reversal of the action of 6,7-ADTN on gastric motility [4]: reversed the action of 6,7-ADTN
COc1cc(N)c(Cl)cc1C(=O)N[C@@H]1C[C@H]2COC[C@@H](C1)N2Cc1ccc(Cl)cc1 [Compound 18, 2-Methoxy-5-chloro-4-amino-[N-(9-(4-chlorobenzyl)-9-aza-3-oxabicyclo(3,3,1)nonan-7β-yl)]benzamide] | 10 | –
COc1cc(N)c(Cl)cc1C(=O)N[C@@H]1C[C@H]2COC[C@@H](C1)N2Cc1cccs1 [Compound 24, 2-Methoxy-5-chloro-4-amino-[N-(9-(2-thenyl)-9-aza-3-oxabicyclo(3,3,1)nonan-7β-yl)]benzamide] | 10 | –
